Results as given in US20070117770A1, “Human ribosomal DNA (rDNA) and ribosomal RNA (rRNA) nucleic acids and uses thereof” (Cylene Pharmaceuticals, Inc., priority 2005, published 2007).

Legend:
MINK(h) = MINK(h) (Homo sapiens, UniProt Q8N4C8); experiment: Protein kinase inhibition assay; format: biochemical; conditions: read-out: percent residual activity of MINK(h)
Method: (§1) Certain compounds were tested for activity in protein kinase inhibition assays. All substrates were dissolved and diluted to working stocks in de-ionized water, apart from histone H1 (10× working stock in 20 mM MOPS pH 7.0), PDKtide (10× working stock in 50 mM Tris pH 7.0) ATF2 (which is typically stored at a 20× working stock in 50 mM Tris pH 7.5, 150 mM NaCl, 0.1 mM EGTA, 0.03% Brij-35, 50% glycerol, 1 mM benzamidine, 0.2 mM PMSF and 0.1% R-mercaptoethanol), KKLNRTLSFAEPG (SEQ ID NO:203) and RRRLSFAEPG (SEQ ID NO:204) (50 mM HEPES pH 7.4) and GGEEEEYFELVKKKK (SEQ ID NO:205) (20 mM MOPS pH 7.0). All kinases were pre-diluted to a 10× working concentration prior to addition into the assay. The composition of the dilution buffer for each kinase is detailed below.
(§2) In a final reaction volume of 25 μl, MINK (h) (5-10 mU) is incubated with 8 mM MOPS pH 7.0, 0.2 mM EDTA, 0.33 mg/ml myelin basic protein, 10 mM MgAcetate and [gamma-33P-ATP] (specific activity approx. 500 cpm/pmol, concentration as required). The reaction is initiated by the addition of the MgATP mix. After incubation for 40 minutes at room temperature, the reaction is stopped by the addition of 5 μl of a 3% phosphoric acid solution. 10 μl of the reaction is then spotted onto a P30 filtermat and washed three times for 5 minutes in 75 mM phosphoric acid and once in methanol prior to drying and scintillation counting.

PKCθ(h) = PKCθ(h) (Homo sapiens, UniProt Q04759); experiment: Protein kinase inhibition assay; format: biochemical; conditions: read-out: percent residual activity of PKCθ(h)
Sequence of PKCθ(h) (Q04759 whole entry): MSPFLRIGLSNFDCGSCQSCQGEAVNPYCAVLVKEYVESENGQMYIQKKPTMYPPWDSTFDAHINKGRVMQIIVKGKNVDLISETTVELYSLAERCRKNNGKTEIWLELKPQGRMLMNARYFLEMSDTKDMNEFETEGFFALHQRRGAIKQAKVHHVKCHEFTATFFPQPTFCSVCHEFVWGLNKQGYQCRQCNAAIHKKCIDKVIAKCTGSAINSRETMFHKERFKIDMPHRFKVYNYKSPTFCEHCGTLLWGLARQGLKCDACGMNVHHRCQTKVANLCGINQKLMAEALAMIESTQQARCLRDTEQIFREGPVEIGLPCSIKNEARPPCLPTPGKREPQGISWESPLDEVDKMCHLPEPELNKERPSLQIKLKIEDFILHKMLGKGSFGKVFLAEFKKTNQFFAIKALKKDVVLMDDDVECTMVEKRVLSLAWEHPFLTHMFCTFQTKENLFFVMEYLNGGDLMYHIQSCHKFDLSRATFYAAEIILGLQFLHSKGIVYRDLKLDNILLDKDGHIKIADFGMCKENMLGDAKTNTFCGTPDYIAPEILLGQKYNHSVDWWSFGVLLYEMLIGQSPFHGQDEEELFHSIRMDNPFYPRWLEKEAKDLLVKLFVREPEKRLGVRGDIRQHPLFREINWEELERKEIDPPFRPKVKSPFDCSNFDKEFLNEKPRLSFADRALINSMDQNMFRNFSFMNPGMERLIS
Method: as §1
as §2, with “PKCθ” for “MINK”, “0.1” for “0.33”, “histone H1,” for “myelin basic protein,”

PKCζ(h) = PKCζ(h) (Homo sapiens, UniProt Q05513); experiment: Protein kinase inhibition assay; format: biochemical; conditions: read-out: percent residual activity of PKCζ(h)
Sequence of PKCζ(h) (Q05513 whole entry): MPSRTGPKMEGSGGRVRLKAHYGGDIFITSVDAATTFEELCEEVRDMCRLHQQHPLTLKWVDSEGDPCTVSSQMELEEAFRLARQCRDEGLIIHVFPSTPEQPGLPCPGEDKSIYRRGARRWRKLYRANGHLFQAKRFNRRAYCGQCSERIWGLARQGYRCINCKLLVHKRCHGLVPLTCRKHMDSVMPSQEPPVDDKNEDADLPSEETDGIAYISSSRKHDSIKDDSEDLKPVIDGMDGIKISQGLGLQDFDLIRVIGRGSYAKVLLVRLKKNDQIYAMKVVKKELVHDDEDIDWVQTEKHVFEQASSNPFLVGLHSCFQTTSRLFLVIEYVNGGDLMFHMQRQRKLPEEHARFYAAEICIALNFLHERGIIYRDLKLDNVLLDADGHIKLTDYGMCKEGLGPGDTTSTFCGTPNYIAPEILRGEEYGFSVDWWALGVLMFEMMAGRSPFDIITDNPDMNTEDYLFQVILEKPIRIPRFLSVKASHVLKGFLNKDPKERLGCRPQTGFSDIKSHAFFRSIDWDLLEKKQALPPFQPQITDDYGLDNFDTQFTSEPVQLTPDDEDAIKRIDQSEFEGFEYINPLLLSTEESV
Method: as §1
as §2, with “PKCξ” for “MINK”, “50 μM ERMRPRKRQGSVRRRV (SEQ ID NO:224),” for “0.33 mg/ml myelin basic protein,”

SAPK2a(h) = SAPK2a(h) (Homo sapiens, UniProt Q16539); experiment: Protein kinase inhibition assay; format: biochemical; conditions: read-out: percent residual activity of SAPK2a(h)
Sequence of SAPK2a(h) (Q16539 whole entry): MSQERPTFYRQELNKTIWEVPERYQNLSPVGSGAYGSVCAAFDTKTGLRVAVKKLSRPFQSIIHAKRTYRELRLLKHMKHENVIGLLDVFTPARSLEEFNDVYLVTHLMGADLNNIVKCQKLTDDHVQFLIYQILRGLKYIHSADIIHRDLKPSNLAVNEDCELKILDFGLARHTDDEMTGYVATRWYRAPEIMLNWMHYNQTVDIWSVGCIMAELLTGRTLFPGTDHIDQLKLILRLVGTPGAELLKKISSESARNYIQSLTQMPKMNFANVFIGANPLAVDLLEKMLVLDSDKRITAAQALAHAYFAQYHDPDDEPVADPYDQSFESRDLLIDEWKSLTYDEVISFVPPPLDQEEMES
Method: as §1
as §2, with “SAPK2a” for “MINK”, “25” for “8”, “Tris” for “MOPS”, “7.5, 0.02” for “7.0, 0.2”, “EGTA,” for “EDTA,”

SAPK2b(h) = SAPK2b(h) (Homo sapiens, UniProt Q15759); experiment: Protein kinase inhibition assay; format: biochemical; conditions: read-out: percent residual activity of SAPK2b(h)
Sequence of SAPK2b(h) (Q15759 whole entry): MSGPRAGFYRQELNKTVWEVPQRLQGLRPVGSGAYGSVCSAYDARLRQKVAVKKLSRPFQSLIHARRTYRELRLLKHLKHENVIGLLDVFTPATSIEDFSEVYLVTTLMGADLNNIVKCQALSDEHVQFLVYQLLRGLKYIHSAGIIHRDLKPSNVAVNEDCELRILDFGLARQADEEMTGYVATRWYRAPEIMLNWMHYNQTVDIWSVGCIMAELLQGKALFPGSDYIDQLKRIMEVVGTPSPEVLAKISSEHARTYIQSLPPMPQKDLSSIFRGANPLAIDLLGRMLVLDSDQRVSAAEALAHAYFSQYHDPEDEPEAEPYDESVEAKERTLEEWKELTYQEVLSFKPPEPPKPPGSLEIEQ
Method: as §1
as §2, with “SAPK2b” for “MINK”, “25” for “8”, “Tris” for “MOPS”, “7.5, 0.02” for “7.0, 0.2”, “EGTA,” for “EDTA,”

nucleolin/cMyc QP DNA = molecular target: T1, nucleolin/cMyc QP DNA (Homo sapiens, UniProt P19338); experiment: EMSA, nucleolin/QP ligand interaction; format: binding; conditions: nucleolin ~250 nM, 32P-labeled ligand 10 or 250 nM, 30 minutes (FIG. 1, FIG. 2)
T1 construct: without the N-terminal acidic stretches domain
T1 sequence (P19338 284-710 limits assumed): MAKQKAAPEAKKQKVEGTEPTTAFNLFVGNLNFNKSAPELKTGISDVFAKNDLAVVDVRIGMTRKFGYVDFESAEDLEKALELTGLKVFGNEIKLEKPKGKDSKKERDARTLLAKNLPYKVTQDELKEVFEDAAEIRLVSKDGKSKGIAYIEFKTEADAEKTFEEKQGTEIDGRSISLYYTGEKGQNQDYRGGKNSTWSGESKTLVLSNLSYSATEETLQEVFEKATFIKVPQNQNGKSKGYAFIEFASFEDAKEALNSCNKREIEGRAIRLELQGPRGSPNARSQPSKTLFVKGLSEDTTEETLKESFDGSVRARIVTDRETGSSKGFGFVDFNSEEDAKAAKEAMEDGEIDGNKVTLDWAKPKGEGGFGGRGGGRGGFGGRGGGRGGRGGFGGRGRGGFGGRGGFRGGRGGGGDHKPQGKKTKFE
Method: The following assays assessed effects of compounds on interactions between nucleolin and nucleic acid ligands capable of forming quadruplex (QP) and hairpin (HP) secondary structures. Nucleic acid ligands tested were a cMyc QP DNA having nucleotide sequence 5′-[…]-3′ (SEQ ID NO: 176) and a HP pre-rRNA region to which nucleolin binds, having the sequence 5′-[…]-3′ (SEQ ID NO: 177). In the assays, recombinant nucleolin (˜250 nM), which was fused to maltose binding protein and had the sequence under accession number NM_005381 without the N-terminal acidic stretches domain, was incubated with each of the two ^32P-labeled nucleic acid ligands (10 or 250 nM). Nucleolin and the nucleic acid ligand were incubated in the presence or absence of a test compound of Formula A-1, B-1, C-6 or C-7 in an incubation buffer (12.5 mM Tris, pH 7.6, 60 mM KCl, 1 mM MgCl2, 0.1 mM EDTA, 1 mM DTT, 5% glycerol, 0.1 mg/ml BSA) for 30 minutes at room temperature. Structures for A-1 and B-1 are shown above and structures for C-6 and C-7 are shown hereafter: [drawing 17] The resulting complexes were separated on a 6% DNA retardation gel using 0.5× TBE with 20 mM KCl as a running buffer (i.e., electrophoresis mobility shift assay (EMSA)).

Sequence of MINK(h) (Q8N4C8 whole entry): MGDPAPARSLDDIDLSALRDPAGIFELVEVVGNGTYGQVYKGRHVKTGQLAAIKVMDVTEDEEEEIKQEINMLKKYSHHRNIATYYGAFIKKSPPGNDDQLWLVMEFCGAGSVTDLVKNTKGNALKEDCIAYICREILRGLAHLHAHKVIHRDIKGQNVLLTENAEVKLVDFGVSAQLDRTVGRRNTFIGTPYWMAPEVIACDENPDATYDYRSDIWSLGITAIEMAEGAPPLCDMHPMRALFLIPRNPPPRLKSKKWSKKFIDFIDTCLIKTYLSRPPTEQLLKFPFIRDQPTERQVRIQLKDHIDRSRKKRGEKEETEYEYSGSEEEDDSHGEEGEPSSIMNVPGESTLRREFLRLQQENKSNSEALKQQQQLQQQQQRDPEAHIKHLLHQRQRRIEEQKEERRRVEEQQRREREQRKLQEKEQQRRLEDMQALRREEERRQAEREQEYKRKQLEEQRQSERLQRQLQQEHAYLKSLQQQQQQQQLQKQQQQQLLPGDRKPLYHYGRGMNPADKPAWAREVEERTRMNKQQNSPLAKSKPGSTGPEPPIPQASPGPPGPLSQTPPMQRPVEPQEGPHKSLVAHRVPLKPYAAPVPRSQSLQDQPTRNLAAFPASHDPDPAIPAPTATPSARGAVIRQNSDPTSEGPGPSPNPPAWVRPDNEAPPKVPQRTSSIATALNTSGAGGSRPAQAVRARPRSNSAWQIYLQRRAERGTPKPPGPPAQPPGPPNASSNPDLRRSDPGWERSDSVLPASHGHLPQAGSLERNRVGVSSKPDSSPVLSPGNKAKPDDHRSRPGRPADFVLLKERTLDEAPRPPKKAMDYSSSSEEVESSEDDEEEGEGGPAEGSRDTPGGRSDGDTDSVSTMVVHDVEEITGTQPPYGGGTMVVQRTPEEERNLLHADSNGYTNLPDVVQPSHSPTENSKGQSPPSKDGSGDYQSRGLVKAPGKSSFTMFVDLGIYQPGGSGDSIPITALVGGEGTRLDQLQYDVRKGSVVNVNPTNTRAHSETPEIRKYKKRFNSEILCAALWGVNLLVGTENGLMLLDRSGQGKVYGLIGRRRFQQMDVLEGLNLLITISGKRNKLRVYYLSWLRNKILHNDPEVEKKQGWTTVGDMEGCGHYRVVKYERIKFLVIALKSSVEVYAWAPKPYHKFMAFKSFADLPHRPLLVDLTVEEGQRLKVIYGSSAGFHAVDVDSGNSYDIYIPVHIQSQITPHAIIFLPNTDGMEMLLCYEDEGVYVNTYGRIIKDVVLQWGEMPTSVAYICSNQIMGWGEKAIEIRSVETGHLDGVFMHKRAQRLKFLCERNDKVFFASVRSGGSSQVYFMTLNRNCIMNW

SMILES | remaining activity at 2.5 µM (MINK(h)) | remaining activity at 2.5 µM (PKCθ(h)) | remaining activity at 2.5 µM (PKCζ(h)) | remaining activity at 2.5 µM (SAPK2a(h)) | remaining activity at 2.5 µM (SAPK2b(h)) | interference with the nucleolin/QP ligand interaction (nucleolin/cMyc QP DNA)
CN1CCCC1CCNC(=O)c1cn2c3c(c(N4CCC(c5cnccn5)C4)c(F)cc3c1=O)Oc1cc3ccccc3cc1-2 (stereo not drawn) [Compound A-1] | 72% | 91% | 56% | 97% | 70% | interfered with the nucleolin/QP ligand interaction in a concentration dependent manner
CC(=O)N1CCN(c2ccc3c(=O)c(C(=O)NCCN4CCCC4)c4n(C)c5ccccc5n4c3n2)CC1 [Compound B-1] | 97% | 108% | 113% | 103% | 94% | interfered with the nucleolin/QP ligand interaction in a concentration dependent manner
